Where two headings read alike, the source gives them in different places.
Key:
[1] = Single-blind, three-phase crossover study of single oral doses: blood analyses of metabolic, hormonal and electrolyte parameters in 8 normal male subjects; format: in vivo, human; conditions: for Free fatty acids, mean / Angiotensin I, mean / Renin, mean / C-peptide, mean / Potassium, mean / Uric acid, mean / Aldosterone, mean / Insulin, mean / Urea, mean / VLDL Cholesterol, mean / Norepinephrine, mean / HDL Cholesterol, mean / Glucose, mean / Triglycerides, mean / LDL Cholesterol, mean / Total cholesterol, mean / Fibrinogen, mean: 8 normal subjects; for Free fatty acids, mean: 0 h: PZG 0.47, PZA 0.51; for Angiotensin I, mean: 0 h: PZG 0.84, PZA 0.66; for Renin, mean: 0 h: PZG 1.0, PZA 1.5; for C-peptide, mean: 0 h: PZG 1.1, PZA 1.2; for Potassium, mean: 0 h: PZG 4.2, PZA 4.0; for Uric acid, mean: 0 h: PZG 6.0, PZA 5.6; for Aldosterone, mean: 0 h: PZG 8.6, PZA 13.6; for Insulin, mean: 0 h: PZG 8.8, PZA 5.4; for Urea, mean: 0 h: PZG 17, PZA 17; for VLDL Cholesterol, mean: 0 h: PZG 20, PZA 17; for Norepinephrine, mean: 0 h: PZG 37, PZA 75; for HDL Cholesterol, mean: 0 h: PZG 41, PZA 46; for Glucose, mean: 0 h: PZG 87, PZA 84; for Triglycerides, mean: 0 h: PZG 101, PZA 86; for LDL Cholesterol, mean: 0 h: PZG 107, PZA 104; for Total cholesterol, mean: 0 h: PZG 168, PZA 167; for Fibrinogen, mean: 0 h: PZG 266, PZA 293
Experimental: A three-phase study, where single oral doses of placebo, followed in one week by 900 mg of pyrazinoylguanidine (PZG), followed in three weeks by 300 mg of pyrazinoic acid (PZA), involving normal male subjects, was carried out to compare and contrast metabolic effects of single doses of PZG and PZA. A purpose of the study was to determine whether the metalbolic effects observed after 3 and also 21 days of PZG administration in patients with renal disease or with diabetes also occurred after a single oral dose. […]
(§1) Eight male nonsmoking subjects aged 24-32 participated. They were normal by history, physical exam and routine laboratory analysis of blood and urine.
(§2) This was a single-blind, three-phase crossover study beginning after a 10-hour fast at 8 a.m., designated time 0 (control), when the first venipuncture occurred. In phase I, three capsules of lactose were given orally, followed by venipunctures 2 and 4 h later. In phase II, 1 week later, after a control blood specimen drawn at 8 a.m., PZG (900 mg) was given orally and blood specimens taken 2 and 4 h thereafter. In phase III, 3 weeks later, after a control blood specimen drawn at 8 a.m., PZA (300 mg) was given orally and blood specimens taken 2 and 4 h later.
(§3) Each phase consisted of taking three capsules, each containing 300 mg. In phase I, all three capsules were of lactose; in phase II, all three were PZG; and in phase III, two capsules were lactose and one PZA. All capsules appeared indistinguishable and were given to each subject who swallowed them with water in the presence of an investigator.
(§4) Once obtained, blood specimens were immediately spun. Refrigerated serum or plasma was analyzed within 24 h for glucose, insulin, electrolytes, blood urea nitrogen, creatinine, liver function tests, triglycerides, total cholesterol, high-density lipoprotein (HDL) cholesterol, low-density lipoprotein (LDL) cholesterol, very-low-density lipoprotein (VLDL) cholesterol, free fatty acids, and fibrinogen.
Repeated measures of analysis of variance were used to compare each subject's placebo, PZG and PZA phase. Two-tailed Student t-tests were performed between groups. All results are reported as means ±SD. Statistical significance was considered when p<0.05. The results are illustrated in Tables 1-4.

[2] = Serum concentration of PZG or PZA after single oral dose in the crossover study; format: in vivo; conditions: human, 300 mg
Experimental: as §1, §2, §3, §4

[3] = system: cutaneous vasomotor reaction of blush area; test: Cutaneous vasomotor response (and tolerability) after a single oral dose in 8 male volunteers; format: in vivo, human; set-up: key to Cutaneous vasomotor response, Score (0-6), Mean: graded 0 = not observed to 6 = most severe reaction
Experimental: as §1, §2
(§5) Comparisons of mean serum or plasma concentrations ±SD during placebo, PZG and PZA phases are presented in Table 1 for glucose, insulin, C-peptide, free fatty acids and norepinephrine. Comparisons of mean serum or plasma concentrations ±SD during these three phases are presented in Table 2 for triglycerides, VLDL, LDL, HDL, total cholesterol, fibrinogen and serum PZG and PZA concentrations. Note the close agreement of serum PZG and PZA concentrations at 2 h and also at 4 h after their administration. Table 3 compares mean serum or plasma concentrations ±SD of renin, angiotensin I, adlosterone, potassium, urea and uric acid during the three phases of the study. […] In an earlier pilot experiment to determine serum PZA concentrations following different PZA doses, a first subject ([…]) after a single oral dose of 300 mg PZA developed unexpectedly a typical cutaneous vasomotor reaction of their blush area which included flushed, warm skin of face, neck and shoulders with a mild rash for about 90 min. […] They described the reaction variously as warm redness or flushed head and neck, rash and itching (Table 4). These reactions, which were graded from 6 (most severe) to 0 (not observed), lasted from 30 min in 3 subjects to 4 h in 1 subject. […] No significant correlation occurred between score of reaction (effect+duration) and PZA peak blood concentration among the subjects (r=0.281) (Table 4).
(§6) ^1 Score = warm + redness (flush) + rash + itching + duration. Duration
(§7) as 0.5 h, 1, 2, 4 h (reaction and duration as noted).

[4] = Exploratory (pilot) study: serum concentrations and cutaneous vasomotor reaction after different oral PZA doses in two subjects; format: in vivo, human; conditions: human, serum, po, exploratory study; for concentration at 1 h: read-out: Serum PZG, 1 h; for concentration at 2 h: read-out: Serum PZG, 2 h
Experimental: as §5, §6, §7

[5] = system: cutaneous vasomotor reaction of blush area; test: as above; format: in vivo, human
Experimental: as §5, §6, §7

[6] = in vivo; cited from earlier work
[7] = 2 h after single oral dose (PZG 900 mg, PZA 300 mg)
[8] = 4 h after single oral dose (PZG 900 mg, PZA 300 mg)

O=C(O)c1cnccn1 [PZA, pyrazinoic acid]
effect on mean values for serum glucose, insulin, C-peptide, triglycerides and free fatty acids ([1]; 0, 2 and 4 hours after administration): decreased
Free fatty acids, mean [1, 7]: 0.10 meq/l
Angiotensin I, mean [1, 7]: 0.75 ng/ml per h
Renin, mean [1, 7]: 1.7 ng/ml per h
C-peptide, mean [1, 7]: 1.0 ng/mL
Potassium, mean [1, 7]: 4.6 meg/l
Uric acid, mean [1, 7]: 6.3 mg/dL
Aldosterone, mean [1, 7]: 12.3 ng/dL
Insulin, mean [1, 7]: 3.7 μlU/ml
Urea, mean [1, 7]: 17 mg/dL
VLDL Cholesterol, mean [1, 7]: 15 mg/dL
Norepinephrine, mean [1, 7]: 61 pg/mL
HDL Cholesterol, mean [1, 7]: 41 mg/dL
Glucose, mean [1, 7]: 85 mg/dL
Triglycerides, mean [1, 7]: 77 mg/dL
LDL Cholesterol, mean [1, 7]: 126 mg/dL
Total cholesterol, mean [1, 7]: 179 mg/dL
Fibrinogen, mean [1, 7]: 278 mg/dL
Free fatty acids, mean [1, 8]: 0.09 meq/l
Angiotensin I, mean [1, 8]: 0.73 ng/ml per h
Renin, mean [1, 8]: 2.1 ng/ml per h
C-peptide, mean [1, 8]: 0.7 ng/mL
Potassium, mean [1, 8]: 4.3 meg/l
Uric acid, mean [1, 8]: 6.2 mg/dL
Aldosterone, mean [1, 8]: 12.5 ng/dL
Insulin, mean [1, 8]: 3.7 μlU/ml
Urea, mean [1, 8]: 16 mg/dL
VLDL Cholesterol, mean [1, 8]: 14 mg/dL
Norepinephrine, mean [1, 8]: 67 pg/mL
HDL Cholesterol, mean [1, 8]: 45 mg/dL
Glucose, mean [1, 8]: 80 mg/dL
Triglycerides, mean [1, 8]: 69 mg/dL
LDL Cholesterol, mean [1, 8]: 109 mg/dL
Total cholesterol, mean [1, 8]: 168 mg/dL
Fibrinogen, mean [1, 8]: 278 mg/dL
effect on plasma concentrations of nonesterified fatty acids ([1]; PZA (Table 1)): reduce
effect on insulin, C-peptide, free fatty acids and triglyceride serum concentrations ([1]; at equivalent plasma concentrations of PZG and PZA): reduced
effect on LDL, HDL and total cholesterol ([1]; single oral dose, within 4 h): not altered systematically
effect on potassium blood concentrations ([1]; single oral dose, within 4 h): not changed
effect on uric acid plasma concentration ([1]; single oral dose, within 4 h): increased
effect on very-low-density lipoprotein (VLDL) ([1]; single oral dose, within 4 h): decreased
effect on plasma norepinephrine ([1]; single oral dose, not statistically significant): did not elevate
concentration at 2 h ([2]; 2 h after single oral dose (PZG 900 mg, PZA 300 mg), 8 normal subjects, read-out: Serum concentration of PZG or PZA, mean): 5000 ng/mL
concentration at 4 h ([2]; 4 h after single oral dose (PZG 900 mg, PZA 300 mg), 8 normal subjects): 3000 ng/mL
concentration at 2 h ([2]; single 300-mg dose of PZA, individual subjects one, read-out: PZA 2-hour serum conc): 5600 ng/mL
concentration at 2 h ([2]; single 300-mg dose of PZA, mean of 8 male volunteers, read-out: PZA 2-hour serum conc, Mean): 4960 ng/mL
onset of cutaneous reaction relative to peak serum concentration ([3]; 300 mg PZA): the onset preceded peak serum PZA concentrations
subjects that responded with a cutaneous vasomotor reaction ([3]; 300 mg PZA): 7 of 8
seriousness of cutaneous vasomotor reactions ([3]; 300 mg PZA, 8 subjects): None of the cutaneous vasomotor reactions was serious enough to interfere with participation in the study
subjects without cutaneous vasomotor reaction ([3]; 300 mg PZA, 8 subjects): One subject among the 8 had no reaction
duration of cutaneous vasomotor reaction (longest) ([3]; 300 mg PZA, in 1 subject): 4 h
duration of cutaneous vasomotor reaction (shortest) ([3]; 300 mg PZA, in 3 subjects): 30 min
effect on blush area ([3]; PZA): transiently stimulate
Cutaneous vasomotor response, Score (0-6), Mean ([3]; single 300-mg dose of PZA, mean of 8 male volunteers): 3.25
half-life ([4]; subject two, 600 mg): 300 min
concentration at 1 h ([4]; subject two, 600 mg): 10200 ng/mL
concentration at 2 h ([4]; subject two, 600 mg): 12000 ng/mL
half-life ([4]; subject, 300 mg): 180 min
concentration at 1 h ([4]; subject, 300 mg): 6200 ng/mL
concentration at 2 h ([4]; subject, 300 mg): 4800 ng/mL
Cutaneous vasomotor response, Score (0-6), exploratory study ([5]; subject two, single oral dose 600 mg): 0
cutaneous vasomotor reaction ([5]; subject two, single oral dose of 600 mg PZA): no cutaneous vasomotor reaction
Cutaneous vasomotor response, Score (0-6), exploratory study ([5]; subject, single oral dose 300 mg): 6
duration of cutaneous vasomotor reaction ([5]; subject, single oral dose of 300 mg PZA, face, neck and shoulders with mild rash): about 90 min
effect on serum triglycerides [6]: lower serum triglycerides
effect on uric acid blood concentrations [6]: increase uric acid blood concentrations
